Data from PubChem BioAssay (NCI).
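Following 48 hours of exposure in 96-well plates, responses at five concentrations were used to interpolate endpoints linearly. GI50 is the concentration that inhibits growth by half. The concentration for full growth arrest is given as TGI.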

Columns and labels:
Assay in all cases: inhibition of tumour cell growth, NCI panel, 48 h
COLO 205 colon = tested on: COLO 205 colon
RXF 393 renal = tested on: RXF 393 renal
SNB-19 CNS = tested on: SNB-19 CNS
SW-620 colon = tested on: SW-620 colon
NCI/ADR-RES ovarian = tested on: NCI/ADR-RES ovarian
LOX IMVI melanoma = tested on: LOX IMVI melanoma
M14 melanoma = tested on: M14 melanoma
DU-145 prostate = tested on: DU-145 prostate
CCRF-CEM leukemia = tested on: CCRF-CEM leukemia
HT29 colon = tested on: HT29 colon
ACHN renal = tested on: ACHN renal
SNB-75 CNS = tested on: SNB-75 CNS
SK-MEL-5 melanoma = tested on: SK-MEL-5 melanoma
SF-268 CNS = tested on: SF-268 CNS
SF-295 CNS = tested on: SF-295 CNS
U251 CNS = tested on: U251 CNS
SK-MEL-28 melanoma = tested on: SK-MEL-28 melanoma
SK-MEL-2 melanoma = tested on: SK-MEL-2 melanoma
UACC-62 melanoma = tested on: UACC-62 melanoma
K-562 leukemia = tested on: K-562 leukemia
NCI-H522 lung = tested on: NCI-H522 lung
MDA-MB-231 breast = tested on: MDA-MB-231 breast
OVCAR-8 ovarian = tested on: OVCAR-8 ovarian
UO-31 renal = tested on: UO-31 renal
TK-10 renal = tested on: TK-10 renal
HOP-92 NSCLC = tested on: HOP-92 NSCLC
SK-OV-3 ovarian = tested on: SK-OV-3 ovarian
HL-60(TB) leukemia = tested on: HL-60(TB) leukemia
MCF7 breast = tested on: MCF7 breast
T-47D breast = tested on: T-47D breast
OVCAR-4 ovarian = tested on: OVCAR-4 ovarian
786-0 renal = tested on: 786-0 renal
CAKI-1 renal = tested on: CAKI-1 renal
MDA-MB-435 = tested on: MDA-MB-435
NCI-H460 lung = tested on: NCI-H460 lung
HCT-15 colon = tested on: HCT-15 colon
A549 NSCLC = tested on: A549 NSCLC
HCT-116 colon = tested on: HCT-116 colon
SN12C renal = tested on: SN12C renal
MALME-3M melanoma = tested on: MALME-3M melanoma
OVCAR-3 ovarian = tested on: OVCAR-3 ovarian
HCC-2998 colon = tested on: HCC-2998 colon
IGROV1 ovarian = tested on: IGROV1 ovarian
EKVX NSCLC = tested on: EKVX NSCLC
NCI-H226 lung = tested on: NCI-H226 lung
HS 578T breast = tested on: HS 578T breast
BT-549 breast = tested on: BT-549 breast
NCI-H23 lung = tested on: NCI-H23 lung
OVCAR-5 ovarian = tested on: OVCAR-5 ovarian
PC-3 prostate = tested on: PC-3 prostate
SF-539 CNS = tested on: SF-539 CNS
KM12 colon = tested on: KM12 colon
RPMI-8226 leukemia = tested on: RPMI-8226 leukemia
UACC-257 melanoma = tested on: UACC-257 melanoma
MOLT-4 leukemia = tested on: MOLT-4 leukemia
A498 renal = tested on: A498 renal
SR leukemia = tested on: SR leukemia
HOP-62 NSCLC = tested on: HOP-62 NSCLC

CC(=O)Oc1ccccc1C(=O)Nc1cc(C(C)C)ccc1C
GI50 (COLO 205 colon): 18.3 µM | TGI (COLO 205 colon): 36.2 µM | GI50 (RXF 393 renal): 2.55 µM | TGI (RXF 393 renal): 9.78 µM | GI50 (SNB-19 CNS): 3.52 µM | TGI (SNB-19 CNS): 23.1 µM | GI50 (SW-620 colon): 9.34 µM | TGI (SW-620 colon): 28.5 µM | GI50 (NCI/ADR-RES ovarian): 3.74 µM | TGI (NCI/ADR-RES ovarian): 24.8 µM | GI50 (LOX IMVI melanoma): 3.94 µM | TGI (LOX IMVI melanoma): 15.2 µM | GI50 (M14 melanoma): 5.31 µM | TGI (M14 melanoma): 22.4 µM | GI50 (DU-145 prostate): 8.38 µM | TGI (DU-145 prostate): > 100 µM | GI50 (CCRF-CEM leukemia): 6.19 µM | TGI (CCRF-CEM leukemia): > 100 µM | GI50 (HT29 colon): 29.8 µM | TGI (HT29 colon): > 100 µM | GI50 (ACHN renal): 4.43 µM | TGI (ACHN renal): 51.1 µM | GI50 (SNB-75 CNS): 4.09 µM | TGI (SNB-75 CNS): 27.6 µM | GI50 (SK-MEL-5 melanoma): 2.27 µM | TGI (SK-MEL-5 melanoma): 5.74 µM | GI50 (SF-268 CNS): 7.14 µM | TGI (SF-268 CNS): > 100 µM | GI50 (SF-295 CNS): 4.46 µM | TGI (SF-295 CNS): 18.8 µM | GI50 (U251 CNS): 4.07 µM | TGI (U251 CNS): 28.5 µM | GI50 (SK-MEL-28 melanoma): 3.93 µM | TGI (SK-MEL-28 melanoma): 20.6 µM | GI50 (SK-MEL-2 melanoma): 3.1 µM | TGI (SK-MEL-2 melanoma): 12.2 µM | GI50 (UACC-62 melanoma): 2.49 µM | TGI (UACC-62 melanoma): 7.59 µM | GI50 (K-562 leukemia): 3.8 µM | TGI (K-562 leukemia): 56.5 µM | GI50 (NCI-H522 lung): 2.34 µM | TGI (NCI-H522 lung): 7.86 µM | GI50 (MDA-MB-231 breast): 9.92 µM | TGI (MDA-MB-231 breast): 50.4 µM | GI50 (OVCAR-8 ovarian): 4.9 µM | TGI (OVCAR-8 ovarian): > 100 µM | GI50 (UO-31 renal): 2.93 µM | TGI (UO-31 renal): 11.7 µM | GI50 (TK-10 renal): 2.96 µM | TGI (TK-10 renal): 12.8 µM | GI50 (HOP-92 NSCLC): 2.54 µM | TGI (HOP-92 NSCLC): 8.4 µM | GI50 (SK-OV-3 ovarian): 5.88 µM | TGI (SK-OV-3 ovarian): 41.6 µM | GI50 (HL-60(TB) leukemia): 4.66 µM | TGI (HL-60(TB) leukemia): 38.3 µM | GI50 (MCF7 breast): 3.83 µM | TGI (MCF7 breast): 42.2 µM | GI50 (T-47D breast): 2.62 µM | TGI (T-47D breast): > 100 µM | GI50 (OVCAR-4 ovarian): 3.44 µM | TGI (OVCAR-4 ovarian): > 100 µM | GI50 (786-0 renal): 5.92 µM | TGI (786-0 renal): 26.6 µM | GI50 (CAKI-1 renal): 4.5 µM | TGI (CAKI-1 renal): 27.9 µM | GI50 (MDA-MB-435): 4.08 µM | TGI (MDA-MB-435): 23.4 µM | GI50 (NCI-H460 lung): 3.99 µM | TGI (NCI-H460 lung): > 100 µM | GI50 (HCT-15 colon): 4.13 µM | TGI (HCT-15 colon): 16.3 µM | GI50 (A549 NSCLC): 5.01 µM | TGI (A549 NSCLC): > 100 µM | GI50 (HCT-116 colon): 4.49 µM | TGI (HCT-116 colon): 16.7 µM | GI50 (SN12C renal): 3.73 µM | TGI (SN12C renal): 20.7 µM | GI50 (MALME-3M melanoma): 2.97 µM | TGI (MALME-3M melanoma): 15.1 µM | GI50 (OVCAR-3 ovarian): 4.38 µM | TGI (OVCAR-3 ovarian): > 100 µM | GI50 (HCC-2998 colon): 4.62 µM | TGI (HCC-2998 colon): 20 µM | GI50 (IGROV1 ovarian): 4.44 µM | TGI (IGROV1 ovarian): 45.7 µM | GI50 (EKVX NSCLC): 3.94 µM | TGI (EKVX NSCLC): 30 µM | GI50 (NCI-H226 lung): 2.55 µM | TGI (NCI-H226 lung): 10.4 µM | GI50 (HS 578T breast): 4.67 µM | TGI (HS 578T breast): 34.7 µM | GI50 (BT-549 breast): 2.63 µM | TGI (BT-549 breast): 8.34 µM | GI50 (NCI-H23 lung): 2.71 µM | TGI (NCI-H23 lung): 9.84 µM | GI50 (OVCAR-5 ovarian): 20.4 µM | TGI (OVCAR-5 ovarian): > 100 µM | GI50 (PC-3 prostate): 4.31 µM | TGI (PC-3 prostate): 56.8 µM | GI50 (SF-539 CNS): 4.61 µM | TGI (SF-539 CNS): 19 µM | GI50 (KM12 colon): 4.61 µM | TGI (KM12 colon): 32.3 µM | GI50 (RPMI-8226 leukemia): 3.9 µM | TGI (RPMI-8226 leukemia): > 100 µM | GI50 (UACC-257 melanoma): 4.33 µM | TGI (UACC-257 melanoma): 33 µM | GI50 (MOLT-4 leukemia): 4.2 µM | TGI (MOLT-4 leukemia): 29.7 µM | GI50 (A498 renal): 5.22 µM | TGI (A498 renal): 33.8 µM | GI50 (SR leukemia): 3.56 µM | TGI (SR leukemia): 30.9 µM | GI50 (HOP-62 NSCLC): 11.2 µM | TGI (HOP-62 NSCLC): 44.9 µM
